The results in this text go back to patent publication US9458220B2 (priority 2010, dated 2016).

Read-outs that look alike come from different tables or passages of the source. Primed or numbered codes have the meaning given here. Where no end group is shown, it is not given here. [ ]: non-standard residue; d: D form. PEG8′ = non-peptide PEG linker of 8 ethylene glycol units

One experiment concerns the target T1, human insulin receptor (Homo sapiens, UniProt P06213).
T1 construct: expressed in transfected cells; plasma membrane fragments
Nature of the experiment: Insulin receptor competition binding assay (scintillation proximity). Background: Scintillation proximity formats need no separation of bound from free tracer.

The next experiment addresses T2, human IGF-1 receptor (Homo sapiens, UniProt P08069).
T2 construct: expressed in transfected cells; plasma membrane fragments
Nature of the experiment: IGF-1 receptor competition binding assay (scintillation proximity). The settings on record: Table 9.

In the next experiment the target is IR-A (Homo sapiens, UniProt P06213). In words: In vitro activity at IR-A relative to native insulin. It is filed as cell-based.
The target of the next experiment is IR-B (Homo sapiens, UniProt P06213). Nature of the experiment: In vitro activity at IR-B relative to native insulin. It is filed as cell-based. The settings on record: for % Insulin Activity IR-B: Table 17.
The target of a further experiment is IGF-1 R (Homo sapiens, UniProt P08069). Nature of the experiment: In vitro activity at IGF-1 R relative to native insulin. The settings on record: for % Insulin Activity IGF-1 R: Table 17. It is filed as cell-based.
The subject of a further experiment is mice. Nature of the experiment: Comparative insulin tolerance test in mice. It is filed as in vivo. The settings on record: result in words. On the procedure: The activity of the compounds in vivo was also tested by administering the compounds to mice. Food was removed four hours prior to administering peptide to normal mice and withheld for the duration of the study. Glucose was measured just prior to administration of test compounds and at 1, 2, 3, 6 and 8, 12, 16, 20 and 24 hours after administration. […] FIGS. 29B and 29C provide data on blood glucose concentrations over 8 hours after administration of the listed analogs.
The compounds were tested at two different concentrations (27 nmol/kg and 90nmol/kg).
This single chain analog comprises a 20 kDa PEG linked to the side chain of the single lysine residue in the linking moiety (PEG8-K-PEG4) that joins the A chain and the B chain. […] FIGS. 33C and 33D show the blood glucose AUC24 hrs in mice administered Detemir and MIU-56, respectively.

Consider `CC[C@H](C)[C@H](NC(=O)CN)C(=O)N[C@H](C(=O)N[C@@H](CC(=O)O)C(=O)N[C@@H](CCC(=O)O)C(=O)N[C@H]1CSSC[C@@H]2NC(=O)[C@H](CO)NC(=O)[C@H](CCCNC(=N)N)NC(=O)[C@H](Cc3ccccc3)NC(=O)[C@H](CSSC[C@H](NC(=O)[C@H](CC(C)C)NC(=O)[C@@H](NC(=O)[C@H](CCC(=O)O)NC(=O)[C@@H]3CCCN3C(=O)CN)[C@@H](C)O)C(=O)NCC(=O)N[C@@H](CO)C(=O)N[C@@H](Cc3c[nH]cn3)C(=O)N[C@@H](CC(C)C)C(=O)N[C@@H](C(C)C)C(=O)N[C@@H](CCC(=O)O)C(=O)N[C@@H](C)C(=O)N[C@@H](CC(C)C)C(=O)N[C@@H](Cc3ccc(O)cc3)C(=O)N[C@@H](CC(C)C)C(=O)N[C@@H](C(C)C)C(=O)N[C@H](C(=O)NCC(=O)N[C@@H](CC(=O)O)C(=O)N[C@@H](CCCNC(=N)N)C(=O)NCC(=O)N[C@@H](Cc3ccccc3)C(=O)N[C@@H](Cc3ccc(O)cc3)C(=O)N[C@@H](Cc3ccccc3)C(=O)N[C@@H](CC(N)=O)C(=O)N[C@@H](CCCCN)C(=O)N3CCC[C@H]3C(=O)N[C@H](C(N)=O)[C@@H](C)O)CSSC[C@@H](C(=O)N[C@@H](C)C(N)=O)NC(=O)[C@H](Cc3ccc(O)cc3)NC(=O)[C@H](CCSC)NC(=O)[C@H](CCC(=O)O)NC(=O)[C@H](CC(C)C)NC(=O)[C@H](CCCNC(=N)N)NC(=O)[C@H](CCCNC(=N)N)NC(=O)[C@H](CC(C)C)NC(=O)[C@H](CC(=O)O)NC2=O)NC1=O)C(C)C`, for which, on human insulin receptor (Table 9), the “Insulin Receptor % insulin (in test)” value came to 19.1% and the “Insulin Receptor % native insulin activity (0.6 nM)” value is given as 37.7%. For the same molecule, at human insulin receptor (Table 9, IGF-1 receptor IC50 over insulin receptor IC50), the Ratio was determined as 22.6. Moreover, the “IGF-1 Receptor % IGF-1 (in test)” value at human IGF-1 receptor was 0.3%.

On to `CC[C@H](C)[C@H](NC(=O)CNC(=O)[C@@H]1CCCN1C(=O)[C@H](C)N)C(=O)N[C@H](C(=O)N[C@@H](CC(=O)O)C(=O)N[C@@H](CCC(=O)O)C(=O)N[C@H]1CSSC[C@@H]2NC(=O)[C@H](CO)NC(=O)[C@H](CCCNC(=N)N)NC(=O)[C@H](Cc3ccccc3)NC(=O)[C@H](CSSC[C@H](NC(=O)[C@H](CC(C)C)NC(=O)[C@@H](NC(=O)[C@H](CCC(=O)O)NC(=O)[C@@H]3CCCN3C(=O)CN)[C@@H](C)O)C(=O)NCC(=O)N[C@@H](C)C(=O)N[C@@H](CCC(=O)O)C(=O)N[C@@H](CC(C)C)C(=O)N[C@@H](C(C)C)C(=O)N[C@@H](CC(=O)O)C(=O)N[C@@H](C)C(=O)N[C@@H](CC(C)C)C(=O)N[C@@H](Cc3ccc(O)cc3)C(=O)N[C@@H](CC(C)C)C(=O)N[C@@H](C(C)C)C(=O)N[C@H](C(=O)NCC(=O)N[C@@H](CC(=O)O)C(=O)N[C@@H](CCCNC(=N)N)C(=O)NCC(=O)N[C@@H](Cc3ccccc3)C(=O)N[C@@H](Cc3ccc(O)cc3)C(=O)N[C@@H](Cc3ccccc3)C(=O)N[C@@H](CC(N)=O)C(=O)N[C@@H](CCCCN)C(=O)N3CCC[C@H]3C(=O)N[C@H](C(N)=O)[C@@H](C)O)CSSC[C@@H](C(=O)N[C@@H](C)C(N)=O)NC(=O)[C@H](Cc3ccc(O)cc3)NC(=O)[C@H](CCSC)NC(=O)[C@H](CCC(=O)O)NC(=O)[C@H](CC(C)C)NC(=O)[C@H](CCCNC(=N)N)NC(=O)[C@H](CCCNC(=N)N)NC(=O)[C@H](CC(C)C)NC(=O)[C@H](CC(=O)O)NC2=O)NC1=O)C(C)C` [IGF1(Y^B16L^B17)(AlaPro)^A-1, 0], for which, on human insulin receptor (Table 8), the “% of Insulin Activity” value is recorded as 37.12%.

In the case of “B1, A14-10K B^1(H5, 10Y16L17R29)29: A^1(H8K14N18, 21) (chain 1 GPEHLCGAHLVDALYLVCGDRGFYFNKR; chain 2 GIVDECCHRSCDLKRLENYCN) [di-10K-TC]”, the IR-A with IR-A (Table 19) was 6.4%. Also, the IR-B with IR-B (Table 19) worked out at 2.1%.

For the molecule “B1, A14-10K B^1(H5, 10Y16L17R29)30-C^1des9-12-A^1(H8, K14, N18, 21) (GPEHLCGAHLVDALYLVCGDRGFYFNKRTGYGSSSRRGIVDECCHRSCDLKRLENYCN) [MIU-79]”, the IR-A with IR-A (Table 19) stood at 1.7%. The same molecule had an IR-B with IR-B (Table 19) of 0.2%.

For “B1-20K B^1(H5, 10Y16L17K29)29-A^1(H8N18, 21) [MIU-77]”, on IR-A, the IR-A is on record as 0.1% and the “activity at the insulin type-A receptor on addition of a 20 kDa PEG” value is around 100 fold.

At IR-A, “B1-20K B^1(H5, 10Y16L17K29)29: A^1(H8N18, 21) [MIU-78]” displayed an IR-A of 8.2%. For the same molecule, the IR-B at IR-B turned out to be 3.2%.

In the case of “B^1(A5H10Y16L17)25-C^1-A^1(H8N18N21) [Ala, B5]”, the “IGF-1 R” value at IGF-1 R (Table 18) is recorded as 2.5%. The IR-B on IR-B (Table 18) came out at 5.7%.

Regarding “B^1(C16-K0,H5,H10,Y16,L17)25a: A^1(N18,N21) [MIU-36]”, the “ability to reduce and sustain low blood glucose” value in the experiment on mice is “more basal and sustained lowered glucose levels relative to native insulin”.

“B^1(H5, 10Y16L17)25-C^1-A^1(T8N18, 21) (GPEHLCGAHLVDALYLVCGDRGFYGYGSSSRRAPQTGIVDECCTRSCDLRRLENYCN) [Thr, A8]”: the IR-A with IR-A (Table 18) is 20.4%. Moreover, in the experiment with IGF-1 R (Table 18), the “IGF-1 R” value was found to be 3.7%. In the experiment with IR-B (Table 18), this molecule returned an IR-B of 8.4%.

With “B^1(H5, 10Y16L17A24)25-C^1-A^1(H8N18, N21) [Ala, B24]”, the IR-A at IR-A amounted to 0.1%. Besides, the “IGF-1 R” value on IGF-1 R was determined as 0.3%. This molecule also registered an IR-B at IR-B of 0.4%.

“B^1(H5, 10Y16L17K29)29-A^1(H8, N18, 21) [DP3(SC)]”: on IR-A (Table 19), the IR-A amounted to 0.03%.

As to “B^1(H5, 10Y16L17K29)29: A^1(H8, N18, 21) [DP3(TC)]”, on IR-A (Table 19), the IR-A came out at 159.8%. The molecule further showed an IR-B at IR-B (Table 19) of 33.1%.

Regarding “B^1(H5, 10Y16L17R29)30-C^1des9-12-A^1(H8, K14, N18, 21) (GPEHLCGAHLVDALYLVCGDRGFYFNKRTGYGSSSRRGIVDECCHRSCDLKRLENYCN) [DP8Mut3KA14]”, the IR-A with IR-A (Table 19) is on record as 132.2%. Besides, the IR-B with IR-B (Table 19) is 12.6%.

In the case of “B^1(H5, 10Y16L17R29)30-C^1des9-12-A^1(H8, N18, 21) (GPEHLCGAHLVDALYLVCGDRGFYFNKRTGYGSSSRRGIVDECCHRSCDLRRLENYCN) [MIU-43]”, the IR-A in the experiment with IR-A (Table 19) was determined as 97.5%. Also, in the experiment with IGF-1 R (Table 19), the IGF-1 R was found to be 14.2%. In the experiment with IR-B (Table 19), this molecule yielded an IR-B of 16.7%.

As for “B^1(H5,H10,Y16,L17)25-C^1-A^1(H8,N18,N21) (GPEHLCGAHLVDALYLVCGDRGFYGYGSSSRRAPQTGIVDECCHRSCDLRRLENYCN) [MIU-35]”, the IR-A in the experiment with IR-A (Table 18) amounted to 61.4%. Also, in the experiment with IGF-1 R, the “% Insulin Activity IGF-1 R” value was 3.2%. Also, the “IGF-1 R” value with IGF-1 R (Table 18) is 3.2%. In the experiment with IR-B (Table 18), the IR-B is 17.4%.

Regarding “B^1(H5,H10,Y16,L17)25a: A^1(H8,rEC16-K14,N18,N21) [MIU-41]”, the “ability to reduce and sustain low blood glucose” value in the experiment on mice is “more basal and sustained lowered glucose levels relative to native insulin”.

For the molecule “B^1(H5,H10,Y16,L17,C16rE-K22)25a: A^1(N18,N21) [MIU-37]”, the “ability to reduce and sustain low blood glucose” value with mice is “more basal and sustained lowered glucose levels relative to native insulin”.

Take “B^1(H5,Y16,L17)25-C^1(K8)-A^1(K14, N18,21) (GPEHLCGAELVDALYLVCGDRGFYGYGSSSRKAPQTGIVDECCFRSCDLKRLENYCN) [MIU-69, two 10K PEG chains, at the N-terminus and at amino acid A14]”: the “% Insulin Activity IGF-1 R” value with IGF-1 R is reported as below 0.1%.

Turning to “B^1(H5,Y16,L17)25-C^1(K8)-A^1(N18,21) (GPEHLCGAELVDALYLVCGDRGFYGYGSSSRKAPQTGIVDECCFRSCDLRRLENYCN) [MIU-67, two 10K PEG chains, at the N-terminus and at position C8]”, the “% Insulin Activity IGF-1 R” value in the experiment with IGF-1 R is reported as below 0.1%. Besides, in the experiment with mice, the “ability to reduce and sustain low blood glucose” value is “roughly equivalent to MIU-59 administered at 40 nmol/kg”. In the experiment with IR-B, the “% Insulin Activity IR-B” value worked out at 0.1%.

With “B^1(H5,Y16,L17, K22)25-C^1(K8)-A^1(N18,21) (GPEHLCGAELVDALYLVCGDKGFYGYGSSSRKAPQTGIVDECCFRSCDLRRLENYCN) [MIU-68, two 10K PEG chains, at the N-terminus and at amino acid B22]”, the “% Insulin Activity IGF-1 R” value with IGF-1 R is on record as below 0.1%. The “% Insulin Activity IR-B” value in the experiment with IR-B was 0.1%.

With “C8-PEG20K B^1(H5, Y16, L17)25-PEG8-K-PEG4-A^1(N18, N21) (GPEHLCGAELVDALYLVCGDRGFY[PEG8′]KGIVDECCFRSCDLRRLENYCN; not fully specified (some residues, bridges); ends and bridges not checked) [MIU-56]”, in the experiment with mice, the “ability to reduce and sustain low blood glucose” value was “sustained duration of action for 24 hours”.

“GE5W-B^1(A5H10Y16L17)25-C^1-A^1(H8N18N21) [GE5W-Ala, B5]” gave an IR-A at IR-A (Table 18) of 8.6%. The “IGF-1 R” value at IGF-1 R (Table 18) is on record as 0.3%. In addition, at IR-B (Table 18), the IR-B came out at 2.3%.

B1: GE5W-B^1(H5, 10Y16L17)25-C^1-A^1(A1H8N18, 21) (peptide)
chain: GEEEEEWGPEHLCGAHLVDALYLVCGDRGFYGYGSSSRRAPQTAIVDECCHRSCDLRRLENYCN
For B1, the IR-A in the experiment with IR-A (Table 18) was determined as 2.1%. For the same molecule, the “IGF-1 R” value with IGF-1 R (Table 18) was determined as 0.5%. For the same molecule, in the experiment with IR-B (Table 18), the IR-B worked out at 0.7%.
